Consider 23 compounds from US10065971B2 (priority 2014, dated 2018).

Each structure is given as a SMILES string. pKi: −log10 of the molar value. Counter-ions that a name gives are not always drawn.

human σ1 receptor, sequence (Q99720 whole entry): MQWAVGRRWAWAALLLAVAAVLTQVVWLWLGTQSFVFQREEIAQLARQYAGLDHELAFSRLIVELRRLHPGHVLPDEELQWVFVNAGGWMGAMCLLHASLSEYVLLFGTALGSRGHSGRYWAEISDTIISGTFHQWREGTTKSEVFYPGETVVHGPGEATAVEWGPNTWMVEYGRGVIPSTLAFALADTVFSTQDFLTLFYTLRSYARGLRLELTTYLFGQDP

For one assay, the target named is human σ1 receptor (Homo sapiens, UniProt Q99720). Put plainly: biochemical. On the set-up: μ and σ1 dual binding: scale not given here. The following applies: combined class from Ki at human σ1 receptor (A1) and Ki at human μ-opioid receptor (A2); radioligand binding. The method, then:
Biological Activity Pharmacological Study Human σ1 Receptor Radioligand Assay
The assay was carried out with 7 μg of membrane suspension, 5 nM of [^3H](+)-pentazocine in either absence or presence of either buffer or 10 μM Haloperidol for total and non-specific binding, respectively. Binding buffer contained Tris-HCl 50 mM at pH 8. Plates were incubated at 37° C. for 120 minutes. After the incubation period, the reaction mix was then transferred to MultiScreen HTS, FC plates (Millipore), filtered and plates were washed 3 times with ice-cold 10 mM Tris-HCL (pH7.4). Filters were dried and counted at approximately 40% efficiency in a MicroBeta scintillation counter (Perkin-Elmer) using EcoScint liquid scintillation cocktail
For the compound `CN(C(=O)N1CCOC2(CCN(CCc3ccccc3)CC2)C1)c1ccccn1.Cl` [Example 119, N-methyl-9-phenethyl-N-(pyridin-2-yl)-1-oxa-4,9-diazaspiro[5.5]undecane-4-carboxamide hydrochloride], the “μ and σ1 dual binding” value is listed as “++”. Still for that read-out and setting: the entry for `Cl.O=C(Cc1ccccc1)N1CCOC2(CCN(CCc3ccccc3)CC2)C1` [Example 4, 1-(9-phenethyl-1-oxa-4,9-diazaspiro[5.5]undecan-4-yl)-2-phenylethanone hydrochloride] is “++”; for `CC1CN(C(=O)c2ccccn2)CC2(CCN(CCc3cccc(OC(F)(F)F)c3)CC2)O1` (centres unmarked) [Example 80, (2-methyl-9-(3-(trifluoromethoxy)phenethyl)-1-oxa-4,9-diazaspiro[5.5]undecan-4-yl)(pyridin-2-yl)methanone dihydrochloride] it is “++”. The same measure, in the same setting: the entry for `C[C@H]1CN(C(=O)c2ccccc2F)CC2(CCN(CCc3ncccc3F)CC2)O1` [Example 144, (S)-(2-fluorophenyl)(9-(2-(3-fluoropyridin-2-yl)ethyl)-2-methyl-1-oxa-4,9-diazaspiro[5.5]undecan-4-yl)methanone] is “++”; for `CCC(=O)N1CC(C)OC2(CCN(CCc3ccccc3F)CC2)C1.Cl` (centres unmarked) [Example 91, 1-(9-(2-fluorophenethyl)-2-methyl-1-oxa-4,9-diazaspiro[5.5]undecan-4-yl)propan-1-one hydrochloride] it is “++”.

Regarding `Cl.O=C(c1ccccc1)N1CCOC2(CCN(CCc3ccc(C(F)(F)F)nc3)CC2)C1` [Example 70, phenyl(9-(2-(6-(trifluoromethyl)pyridin-3-yl)ethyl)-1-oxa-4,9-diazaspiro[5.5]undecan-4-yl)methanone hydrochloride], the “μ and σ1 dual binding” value is reported as “++”.

Turning to `CC1CN(C(=O)c2ccccc2)CC2(CCN(CCc3ccccc3NC(N)=O)CC2)O1` (centres unmarked) [Example 110, 1-(2-(2-(4-benzoyl-2-methyl-1-oxa-4,9-diazaspiro[5.5]undecan-9-yl)ethyl)phenyl)urea], the “μ and σ1 dual binding” value is on record as “++”. The same measure, in the same setting: then `Cl.O=S(=O)(c1ccccc1)N1CCOC2(CCN(CCc3ccccc3)CC2)C1` [Example 83, 9-phenethyl-4-(phenylsulfonyl)-1-oxa-4,9-diazaspiro[5.5]undecane hydrochloride], with “++”; and `Cl.O=C(c1cccnc1)N1CCOC2(CCN(CCc3ccccc3)CC2)C1` [Example 5, (9-phenethyl-1-oxa-4,9-diazaspiro[5.5]undecan-4-yl)(pyridin-3-yl)methanone hydrochloride], with “++”. Take `CC1CN(C(=O)c2ncccc2F)CC2(CCN(CCc3ccccc3)CC2)O1.Cl` (centres unmarked) [Example 32, (3-fluoropyridin-2-yl)(2-methyl-9-phenethyl-1-oxa-4,9-diazaspiro[5.5]undecan-4-yl)methanone hydrochloride]: the “μ and σ1 dual binding” value is “++”. Take `Cl.O=C(CC1CCOCC1)N1CCOC2(CCN(CCc3ccccc3)CC2)C1` [Example 16, 1-(9-phenethyl-1-oxa-4,9-diazaspiro[5.5]undecan-4-yl)-2-(tetrahydro-2H-pyran-4-yl)ethanone hydrochloride]: the “μ and σ1 dual binding” value is reported as “++”. On the same count and under the same terms, then `C[C@H]1CN(C(=O)c2c(F)cccc2F)CC2(CCN(CCc3ncccc3F)CC2)O1` [Example 146, (S)-(2,6-difluorophenyl)(9-(2-(3-fluoropyridin-2-yl)ethyl)-2-methyl-1-oxa-4,9-diazaspiro[5.5]undecan-4-yl)methanone], with “++”. With `CC1CN(C(=O)c2ccccc2)CC2(CCN(CCc3cccc(C(F)(F)F)n3)CC2)O1` (centres unmarked) [Example 38, (2-methyl-9-(2-(6-(trifluoromethyl)pyridin-2-yl)ethyl)-1-oxa-4,9-diazaspiro[5.5]undecan-4-yl)(phenyl)methanone dihydrochloride], the “μ and σ1 dual binding” value is recorded as “++”.

With `C[C@@H]1CN(C(=O)c2c(F)cccc2F)CC2(CCN(CCc3ncccc3F)CC2)O1` [Example 145, (R)-(2,6-difluorophenyl)(9-(2-(3-fluoropyridin-2-yl)ethyl)-2-methyl-1-oxa-4,9-diazaspiro[5.5]undecan-4-yl)methanone], the “μ and σ1 dual binding” value was “++”. The same measure, in the same setting: the entry for `Cl.O=C(Cc1ccccn1)N1CCOC2(CCN(CCc3ccccc3)CC2)C1` [Example 19, 1-(9-phenethyl-1-oxa-4,9-diazaspiro[5.5]undecan-4-yl)-2-(pyridin-2-yl)ethanone hydrochloride] is “++”.

The assay is the same for the next values; noted with them: combined class from Ki at human σ1 receptor (A1) and Ki at human μ-opioid receptor (A2); radioligand binding; read-out: μ and σ1 dual binding.
Turning to `CC(C)CCN1CCC2(CC1)CN(C(=O)c1ccccc1)CC(C)O2` (centres unmarked) [Example 86, (9-isopentyl-2-methyl-1-oxa-4,9-diazaspiro[5.5]undecan-4-yl)(phenyl)methanone hydrochloride], the pKi is under 6.30. Same read-out and setting: the figure for `COC(=O)CCN1CCC2(CC1)CN(C(=O)c1c(F)cccc1F)CC1(CC1)O2` [Example 140, methyl 3-(12-(2,6-difluorobenzoyl)-4-oxa-8,12-diazadispiro[2.1.5.3]tridecan-8-yl)propanoate] is under 6.30. On the same count and under the same terms, then `CC1CN(C(=O)c2cccc(F)c2F)CC2(CCN(CCc3ncccc3F)CC2)O1` (centres unmarked) [Example 147, (2,3-difluorophenyl)(9-(2-(3-fluoropyridin-2-yl)ethyl)-2-methyl-1-oxa-4,9-diazaspiro[5.5]undecan-4-yl)methanone], with under 6.30.

As to `CC1CN(C(=O)c2ccccc2)CC2(CCN(CC(=O)N3CCOCC3)CC2)O1` (centres unmarked) [Example 89, 2-(4-benzoyl-2-methyl-1-oxa-4,9-diazaspiro[5.5]undecan-9-yl)-1-morpholinoethanone hydrochloride], the pKi is under 6.30. The same measure, in the same setting: then `O=C(c1ccccc1)N1CCOC2(CCN(CCc3cccnc3)CC2)C1` [Example 71, phenyl(9-(2-(pyridin-3-yl)ethyl)-1-oxa-4,9-diazaspiro[5.5]undecan-4-yl)methanone dihydrochloride], with under 6.30; and `CC1CN(C(=O)c2ccccc2)CC2(CCN(CC(=O)N3CCCCC3)CC2)O1` (centres unmarked) [Example 90, 2-(4-benzoyl-2-methyl-1-oxa-4,9-diazaspiro[5.5]undecan-9-yl)-1-(piperidin-1-yl)ethanone hydrochloride], with under 6.30; and `O=C(C1CCOCC1)N1CCOC2(CCN(CCc3ccccc3)CC2)C1` [Example 18, (9-phenethyl-1-oxa-4,9-diazaspiro[5.5]undecan-4-yl)(tetrahydro-2H-pyran-4-yl)methanone], with under 6.30. On the same count and under the same terms, then `CC1CN(C(=O)c2ccccc2)CC2(CCN(CCc3ccc(S(N)(=O)=O)cc3)CC2)O1` (centres unmarked) [Example 75, 4-(2-(4-benzoyl-2-methyl-1-oxa-4,9-diazaspiro[5.5]undecan-9-yl)ethyl)benzene-sulfonamide], with under 6.30.
